Among the data in ChEMBL document CHEMBL4483862, “Open-source discovery of chemical leads for next-generation chemoprotective antimalarials” (2018) are IC50 and IC90 values, retold here.

Broadly, the IC50 is the concentration at which inhibition is half-maximal. By IC90 is commonly meant the concentration needed for an effect of 90%.

For this assay, the system named is Plasmodium berghei. The assay can be described thus: Luciferase/luciferin-expressing antifolate-resistant parasites were used to infect a culture of HepG2 cells that were pre-incubated with compounds. Infected hepatocytes emit light due to the luciferase reaction. Assay results are presented as the percent inhibition of light emission compared to control. […]. The note with it: sporozoite; for IC90: read-out: LUCIFERASE INFECTION ASSAY - IC90. In kind it is functional.

Where [1] appears, read: read-out: LUCIFERASE INFECTION ASSAY - IC50.

For `CN(C)c1ccc(CNc2ncnc3ccccc23)cc1`, the IC90 was greater than 10 µM. Besides, the 50% inhibitory concentration (IC50) (HEPG2TOX_HILL_SLOPE 1.21, HEPG2TOX_R_SQUARED 0.974, PBLUC_HILL_SLOPE 1.4, PBLUC_R_SQUARED 0.594, read-out: LUCIFERASE INFECTION ASSAY - IC50) stood at 4.35 µM.

In the case of `Oc1ccc(CNC(c2ccc3c(c2)CCC3)c2cccs2)cc1` (configuration not stated), the 90% effect concentration (IC90) was greater than 10 µM. In addition, the half-maximal inhibitory concentration (IC50) under setting [1] was greater than 10 µM.

In the case of `COc1cc(Nc2nccn3c(-c4ccc(OC(F)(F)F)cc4)cnc23)cc(OC)c1OC`, the IC90 was 4.53 µM. In addition, the half-inhibitory concentration (IC50) (HEPG2TOX_HILL_SLOPE 16.8, HEPG2TOX_R_SQUARED 0.492, PBLUC_HILL_SLOPE 4.79, PBLUC_R_SQUARED 0.767, read-out: LUCIFERASE INFECTION ASSAY - IC50) was 2.86 µM.

With `O=C(NC1CCN(C(=O)c2ccoc2)CC1)c1cccc2c3c([nH]c12)CCCCC3`, the concentration for an effect of 90% (IC90) was greater than 10 µM. The half-maximal inhibitory concentration (IC50) (PBLUC_HILL_SLOPE 15.4, PBLUC_R_SQUARED 0.491, read-out: LUCIFERASE INFECTION ASSAY - IC50) worked out at 9.35 µM.

For `c1ccc(CNc2nccc3[nH]c(-c4ccccc4)nc23)cc1`, the concentration for an effect of 90% (IC90) is 7.44 µM. Besides, under “HEPG2TOX_HILL_SLOPE 2.3, HEPG2TOX_R_SQUARED 0.763, PBLUC_HILL_SLOPE 1.79, PBLUC_R_SQUARED 0.522, read-out: LUCIFERASE INFECTION ASSAY - IC50”, the concentration for half-maximal inhibition (IC50) is 2.19 µM.

Turning to `CCCCCC1C(O)CC(c2ccccc2)N(C)C1c1ccccc1` (configuration not stated), the IC90 was greater than 9.78 µM. Moreover, the half-maximal inhibitory concentration (IC50) under setting [1] was greater than 9.78 µM.

`CCCCNc1nc2ccccc2n1CC(=O)Nc1ccc(S(=O)(=O)N2CCCC2)cc1`: the concentration for an effect of 90% (IC90) is greater than 10 µM. The concentration for half-maximal inhibition (IC50) (PBLUC_HILL_SLOPE 1.82, PBLUC_R_SQUARED 0.488, read-out: LUCIFERASE INFECTION ASSAY - IC50) turned out to be 3.67 µM.

Regarding `O=c1c2ccsc2ncn1CCS(=O)(=O)N1CCN(C(c2ccc(F)cc2)c2ccc(F)cc2)CC1`, the IC90 is greater than 10 µM. The half-inhibitory concentration (IC50) (FFLUC_HILL_SLOPE 1.84, FFLUC_R_SQUARED 0.406, PBLUC_HILL_SLOPE 0.263, PBLUC_R_SQUARED 0.514, read-out: LUCIFERASE INFECTION ASSAY - IC50) was determined as 1.49 µM.

For the compound `Cc1c(C)n(CCCO)c2ncn3nc(-c4ccccc4)nc3c12`, the IC90 is greater than 10.3 µM. Besides, the IC50 (PBLUC_HILL_SLOPE 0.753, PBLUC_R_SQUARED 0.737, read-out: LUCIFERASE INFECTION ASSAY - IC50) turned out to be 1.26 µM.

As for `COc1ccc(-c2nnc(SCC(=O)c3[nH]c(C)c(C(C)=O)c3C)n2C2CCCCC2C)cc1` (configuration not stated), the IC90 is greater than 10 µM. Besides, the IC50 under setting [1] was greater than 10 µM.

As to `COC(=O)c1ccc(O)c(CSc2ccc(Cl)cc2)c1`, the 90% effect concentration (IC90) is greater than 10.7 µM. For the same compound, the IC50 (FFLUC_HILL_SLOPE 15.4, FFLUC_R_SQUARED 0.267, PBLUC_HILL_SLOPE 7.94, PBLUC_R_SQUARED 0.227, read-out: LUCIFERASE INFECTION ASSAY - IC50) worked out at 8.54 µM.

Turning to `Cc1occc1C(=O)N/N=C/C=C1\N(C)c2ccccc2C1(C)C`, the concentration for an effect of 90% (IC90) was greater than 10 µM. The IC50 under setting [1] was greater than 10 µM.

`COc1ccc(-c2nonc2NC(=O)c2oc3cc(C)ccc3c2C)cc1OC`: the IC90 is 3.11 µM. The IC50 (HEPG2TOX_HILL_SLOPE 1.8, HEPG2TOX_R_SQUARED 0.881, PBLUC_HILL_SLOPE 18.6, PBLUC_R_SQUARED 0.206, read-out: LUCIFERASE INFECTION ASSAY - IC50) turned out to be 2.77 µM.

Consider `CCC1CCCCN1C(=O)CSC(=Nc1ccccc1F)C(C#N)c1nc2ccccc2s1` (configuration not stated), for which the IC90 is 9.73 µM. The 50% inhibitory concentration (IC50) (HEPG2TOX_HILL_SLOPE 76.7, HEPG2TOX_R_SQUARED 0.475, PBLUC_HILL_SLOPE 22.7, PBLUC_R_SQUARED 0.0851, read-out: LUCIFERASE INFECTION ASSAY - IC50) is 8.83 µM.

For the compound `CN(C)CCNc1nc2sc3c(c2c(=O)n1Cc1ccco1)CCCCC3`, the IC90 is 8.43 µM. Besides, the IC50 (PBLUC_HILL_SLOPE 3.33, PBLUC_R_SQUARED 0.165, read-out: LUCIFERASE INFECTION ASSAY - IC50) is 4.36 µM.

Turning to `Cc1noc(C)c1COc1ccc(C(=O)OCC(=O)N(C)C2(C#N)CCCCC2)cc1`, the 90% effect concentration (IC90) is greater than 10 µM. Under setting [1], the half-maximal inhibitory concentration (IC50) was greater than 10 µM.

Turning to `CC1CCN(S(=O)(=O)c2ccc(C(=O)NCc3cccc(C(F)(F)F)c3)cc2)CC1`, the IC90 was greater than 10 µM. Where the note is “FFLUC_HILL_SLOPE 13.2, FFLUC_R_SQUARED 0.207, read-out: LUCIFERASE INFECTION ASSAY - IC50”, the half-maximal inhibitory concentration (IC50) was greater than 10 µM.

For `COc1cccc(CN(C)S(=O)(=O)NC2CCC(C)CC2)c1` (configuration not stated), the concentration for an effect of 90% (IC90) is greater than 10 µM. In addition, the IC50 (HEPG2TOX_HILL_SLOPE 1.57, HEPG2TOX_R_SQUARED 0.723, PBLUC_HILL_SLOPE 2.26, PBLUC_R_SQUARED 0.44, read-out: LUCIFERASE INFECTION ASSAY - IC50) came out at 7.19 µM.

Regarding `CCCc1nc2oc3cc(OC)ccc3c(=O)c2c(=O)n1Cc1ccco1`, the IC90 was greater than 9.01 µM. The IC50 (PBLUC_HILL_SLOPE 1.9, PBLUC_R_SQUARED 0.121, read-out: LUCIFERASE INFECTION ASSAY - IC50) was 5.6 µM.

On to `COCC(C)n1c(C)cc(C(=O)COC(=O)[C@@H]2CCCN2C(=O)c2cccs2)c1C` (some centres not stated), for which the 90% effect concentration (IC90) was greater than 10 µM. Further, the half-maximal inhibitory concentration (IC50) under setting [1] is greater than 10 µM.

For `CCc1cccc(CC)c1N1C(=O)/C(=C\c2ccc(C(C)(C)C)cc2)N(C)C1=S`, the IC90 was greater than 10 µM. The IC50 (FFLUC_HILL_SLOPE 0.556, FFLUC_R_SQUARED 0.412, PBLUC_HILL_SLOPE 2.98, PBLUC_R_SQUARED 0.687, read-out: LUCIFERASE INFECTION ASSAY - IC50) was determined as 5.42 µM.

In the case of `O=C(NCCSCc1csc2ccc(Cl)cc12)Nc1ccccc1`, the IC90 is greater than 8.75 µM. Also, the IC50 (PBLUC_HILL_SLOPE 14.3, PBLUC_R_SQUARED 0.456, read-out: LUCIFERASE INFECTION ASSAY - IC50) turned out to be 8.24 µM.

Take `CCn1c(C)nc2cc(C(=O)NNS(=O)(=O)c3cccc(Cl)c3Cl)ccc21.O=S(=O)(O)c1cccc(Cl)c1Cl`: the IC90 is greater than 10 µM. Under setting [1], the IC50 is greater than 10 µM.

For the compound `O=C(Nc1cc(C(F)(F)F)cc(C(F)(F)F)c1)c1cc2ccccc2s1`, the concentration for an effect of 90% (IC90) is greater than 8.48 µM. Further, the half-maximal inhibitory concentration (IC50) (PBLUC_HILL_SLOPE 0.25, PBLUC_R_SQUARED 0.0524, read-out: LUCIFERASE INFECTION ASSAY - IC50) is greater than 8.48 µM.

As to `CNc1ccccc1C(C)(C)c1cc(-c2ccc(C(C)C)cc2)n[nH]1`, the IC90 was greater than 10 µM. Besides, the half-maximal inhibitory concentration (IC50) (HEPG2TOX_HILL_SLOPE 0.485, HEPG2TOX_R_SQUARED 0.452, PBLUC_HILL_SLOPE 15.6, PBLUC_R_SQUARED 0.572, read-out: LUCIFERASE INFECTION ASSAY - IC50) is 8.84 µM.

Consider `CC(C)(C)NS(=O)(=O)c1cccc2c(N)cccc12`, for which the concentration for an effect of 90% (IC90) turned out to be 5.45 µM. The IC50 (FFLUC_HILL_SLOPE 12.8, FFLUC_R_SQUARED 0.416, HEPG2TOX_HILL_SLOPE 12.3, HEPG2TOX_R_SQUARED 0.393, PBLUC_HILL_SLOPE 11.3, PBLUC_R_SQUARED 0.345, read-out: LUCIFERASE INFECTION ASSAY - IC50) was found to be 4.49 µM.

In the case of `Cc1cc(-c2ccccc2)[s+]c(-c2ccccc2)c1`, the IC90 is greater than 10 µM. The IC50 (FFLUC_HILL_SLOPE 1.28, FFLUC_R_SQUARED 0.852, PBLUC_HILL_SLOPE 0.191, PBLUC_R_SQUARED 0.106, read-out: LUCIFERASE INFECTION ASSAY - IC50) is greater than 10 µM.

For the compound `CN(Cc1nc2ccccc2[nH]1)c1nccc(C(F)(F)F)n1`, the IC90 was greater than 10 µM. Further, under setting [1], the IC50 is greater than 10 µM.

In the case of `Cc1c(S(=O)(=O)c2ccc(Cl)cc2)csc1C(=O)N(c1ccccc1)[S+](C)[O-]` (configuration not stated), the concentration for an effect of 90% (IC90) was found to be 2.72 µM. For the same compound, the half-maximal inhibitory concentration (IC50) (PBLUC_HILL_SLOPE 18.3, PBLUC_R_SQUARED 0.735, read-out: LUCIFERASE INFECTION ASSAY - IC50) was 2.41 µM.

`O=C1C(c2ccccc2)=C(c2ccccc2)C(c2ccccc2)=C1c1ccccc1`: the concentration for an effect of 90% (IC90) is greater than 8.58 µM. For the setting “FFLUC_HILL_SLOPE 1.74, FFLUC_R_SQUARED 0.65, PBLUC_HILL_SLOPE 1.01, PBLUC_R_SQUARED 0.27, read-out: LUCIFERASE INFECTION ASSAY - IC50”, the 50% inhibitory concentration (IC50) was 4.04 µM.

Regarding `CC(C)(C)N1C(=O)CC(=O)CC1c1ccc(Cl)cc1` (configuration not stated), the IC90 came out at 11.1 µM. Also, the IC50 under setting [1] stood at 9.51 µM.

As to `CN(C)c1cccc(-c2ccc3nnc(-c4cscn4)n3c2)c1`, the IC90 was greater than 10 µM. Moreover, the IC50 under setting [1] is greater than 10 µM.

On to `COc1ccc(C=C(c2nc3ccccc3s2)c2nc3ccccc3s2)c(OC)c1OC`, for which the 90% effect concentration (IC90) is greater than 10 µM. Also, for the setting “HEPG2TOX_HILL_SLOPE 1.46, HEPG2TOX_R_SQUARED 0.78, PBLUC_HILL_SLOPE 2.12, PBLUC_R_SQUARED 0.479, read-out: LUCIFERASE INFECTION ASSAY - IC50”, the IC50 was 7.05 µM.

As for `CN(C)c1ccc(-c2cnc3cnc(-c4cnn(Cc5ccccc5)c4)cn23)cc1`, the 90% effect concentration (IC90) is greater than 8.37 µM. The half-inhibitory concentration (IC50) (FFLUC_HILL_SLOPE 6.21, FFLUC_R_SQUARED 0.0566, PBLUC_HILL_SLOPE 1.47, PBLUC_R_SQUARED 0.566, read-out: LUCIFERASE INFECTION ASSAY - IC50) turned out to be 3.91 µM.

As for `CCCCCCCc1ccc(C(=O)Nc2ccc(F)c(Cl)c2)cc1`, the 90% effect concentration (IC90) is greater than 9.49 µM. Also, under “FFLUC_HILL_SLOPE 16.3, FFLUC_R_SQUARED 0.0372, PBLUC_HILL_SLOPE 1.73, PBLUC_R_SQUARED 0.521, read-out: LUCIFERASE INFECTION ASSAY - IC50”, the IC50 amounted to 4.92 µM.

As to `Nc1cccc(-c2cn3c(-c4ccc5c(c4)OCO5)cnc3cn2)c1`, the 90% effect concentration (IC90) came to 8.12 µM. Moreover, the IC50 (PBLUC_HILL_SLOPE 4.69, PBLUC_R_SQUARED 0.303, read-out: LUCIFERASE INFECTION ASSAY - IC50) worked out at 5.08 µM.
